Results taken from patent US5384113A, “Stabilizers to prevent autoradiolysis of radiolabeled peptides and proteins” (priority 1993, dated 1995).

Tests used:
somatostatin receptors = conditions: variety of human tumors; cited from earlier work
[1] = Stability (radiochemical purity) of 111In DTPA-octreotide solution at room temperature by reverse-phase HPLC with radiometric detector; assay type: physicochemical; conditions: alone or in combination with other stabilizers; summary of Examples 1-7
Experimental: (§1) To a lyophilized kit containing 10 μg DTPA-octreotide (N-[3,6,9,9-tetrakis(carboxymethyl)-3,6,9-triazanonanoyl]-D-phenylalanyl-L -hemicystyl-L-phenylalanyl-D-tryptophyl-L-lysyl-L-threonyl-L-hemicydyyl-L-t hreoninol cyclic (2→7) disulfide, MW=1394.60 gm/mol), 5.6 mg trisodium citrate dihydrate, and 0.4 mg citric acid monohydrate was added 1.0 ml of 0.02M HCl containing 4.70 mCi of ^111 In. The pH of the solution was 4.5. The solution was kept at room temperature and monitored for the amount of ^111 In DTPA-octreotide using reverse-phase HPLC and a Beckman 170 radiometric detector. […]
as §1, with “dihydrate,” for “dihydrate, and”, “monohydrate, and 1.0 mg inositol” for “monohydrate”, “6.04” for “4.70”, “The pH of the solution was 4.5.” left out

**Q.** For `C[C@@H](O)[C@@H]1NC(=O)[C@H](CCCCN)NC(=O)[C@@H](Cc2c[nH]c3ccccc23)NC(=O)[C@H](Cc2ccccc2)NC(=O)[C@@H](NC(=O)[C@H](N)Cc2ccccc2)CSSC[C@@H](C(=O)N[C@H](CO)[C@@H](C)O)NC1=O` [octreotide], which “Binding affinity to somatostatin receptors” value (somatostatin receptors) is on record?
**A.** The value was “very high binding affinity”.

**Q.** For `O=C(O)c1cc(O)ccc1O` [gentisic acid, 2,5-dihydroxybenzoic acid], which “Prevention of radiolysis of radiolabeled peptides (stabilizer effect)” value [1] is on record?
**A.** The value was “very effective at preventing radiolysis”.
